Results on one molecule are retold here after publication PMC4067310, “From Pan-Reactive KV7 Channel Opener to Subtype Selective Opener/Inhibitor by Addition of a Methyl Group” (PLoS ONE, 2014).

One may read the IC50 as the point on the concentration scale where inhibition reaches its midpoint. Read a high IC50 as a need for much substance. By Papp is commonly meant the rate of passage across a membrane or cell layer, normalised by area and donor concentration.

Several values for one entry are separate records, joined by “and”; a condition that tells them apart may be missing. Equal entries are not always repeated.

The target of one series is T1, KV7.2 (Homo sapiens, UniProt O43526).
T1 construct: expressed in transfected cells; host or cells: Xenopus laevis oocytes injected with cRNA (pGEM-HE vector)
In words: Two-electrode voltage-clamp of KV7.2 expressed in Xenopus laevis oocytes. The class given is cell-based. The protocol:
Point mutations were introduced using mutated oligonucleotide extension (PfuTurbo Polymerase, Stratagene, La Jolla, CA, USA) from a plasmid template harboring the cDNA of interest, digested with DpnI (Fermentas, St. Leon-Roth, Germany) and transformed into E.coli XL1 Blue cells. The construct was verified by complete DNA sequencing of the cDNA insert. cRNA was prepared from linearized human wild-type (WT) and mutant KV7 channels in the pGEM-HE vector using the T7 m-Message Machine kit (Ambion, Austin, TX, USA) according to the manufacturer's instructions.
Extraction of Xenopus laevis oocytes and injection of cRNA was performed as described previously. Oocytes were kept in Modified Barth's Saline (in mM: 88 NaCl, 1 KCl, 2.4 NaHCO3, 0.41 CaCl2, 0.82 MgSO4, 0.3 Ca(NO3)2, 15 HEPES, pH 7.4 supplemented with 100 U/mL penicillin and 100 µg/mL streptomycin) at 18°C, and currents were recorded after 2-7 days. The care of Xenopus laevis and the oocyte extraction procedure were performed according to national guidelines and approved by the Danish Animal Experiments Inspectorate.
KV7 currents in Xenopus laevis oocytes were recorded using two-electrode voltage-clamp at room temperature in Ringer buffer (in mM: 115 NaCl, 2.5 KCl, 1.8 CaCl2, 0.1 MgCl2, 10 HEPES, pH 7.4) as described previously. Data was acquired using pCLAMP 10.2 software (Molecular Devices, CA, USA) and analyzed using pCLAMP 10.2 and GraphPad Prism 4.0 (GraphPad Software Inc., CA, USA). Currents were elicited from a holding potential of −80 mV by 5 s steps to potentials between −100 and +50 mV in 10 mV increments, followed by a 2 s step to −120 mV.
SMB-1 was dissolved in dimethyl sulfoxide (DMSO) to obtain a concentrated stock solution. On the day of experiments the stock solution was thawed and diluted in Ringer buffer to the final concentrations. A concentration of 10 µM SMB-1 was used unless indicated otherwise. The final DMSO concentration never exceeded 0.1%.
Current – voltage (I–V) relationship curves were generated by normalizing the steady-state peak current measured at potentials between −100 and +50 mV to the current measured at +50 mV in control recordings and plotting the values against the test potential.
The voltage-dependence of activation was determined from tail current analysis using the current measured immediately after the transient capacitive current after stepping to −120 mV from potentials between −100 mV and +50 mV. Data was normalized to extend from 0–1 and the tail current-voltage relationship was fitted to the Boltzmann equation: [drawing 1] (Equation\;1) where I max is the maximum tail current, I min is the minimum tail current, V0.5 is the potential for half maximal activation and k is the slope factor. A V0.5 was calculated for each individual experiment and statistical significance was estimated by paired two-tailed Student's t-test.
Activation kinetics for KV7.2 and KV7.2-W236L was determined by fitting the traces recorded at potentials between −40 and +40 mV to a double exponential function: [drawing 2] (Equation\;2) where I(t) is the current at time t, Ifast and Islow are the current amplitudes at infinite times, and τfast and τslow are the time constants of the fast and slow components, respectively.
For investigation of deactivation kinetics the tail current traces recorded at −120 mV when stepping from the channels' respective ∼V0.5 were fitted to a single exponential function (Eq. 3).
Dose-response curves from electrophysiological experiments were made by plotting the increase in steady state current at +50 mV expressed in percentages as a function of drug concentration. The data were then analyzed by non-linear regression and fitted to the equation for sigmoidal dose-response with variable slope: [drawing 4] (Equation\;4) where R1 is the initial response, R2 is the maximum response, X is the logarithm of the drug concentration and nH is the slope (Hill coefficient) of the curve.

Series [1] relates to MDCK cell system expressing human MDR1 [ABCB1, P-glycoprotein (P-gp)]. In words: Bidirectional permeability in MDR1-MDCK cells. The class given is in vitro ADME. Particulars: judged from the efflux ratio in MDR1-MDCK cells. The protocol:
(§1) The bidirectional permeability (Papp) of SMB-1 was examined in an MDCK cell system expressing human MDR1 [ABCB1, P-glycoprotein (P-gp)] as described previously. Permeation of the test compound from apical (A) to basal (B) direction or B to A direction was determined in triplicate over a 150-min incubation at 37°C. The efflux ratio was calculated as the ratio between Papp (B to A) and Papp (A to B). Free fraction of SMB-1 was determined using a standard equilibrium dialysis methodology with freshly isolated rat brain homogenate or plasma. Equilibrium dialysis was performed by incubating at 37°C for 5 h in triplicates.

For series [2], the system named is human MDR1 (ABCB1, P-glycoprotein). In words: Bidirectional permeability in MDR1-MDCK cells. The class given is in vitro ADME. To be noted: dog, MDCK-MDR1, 150-min incubation at 37°C. The protocol:
as §1

T1 sequence (O43526 whole entry): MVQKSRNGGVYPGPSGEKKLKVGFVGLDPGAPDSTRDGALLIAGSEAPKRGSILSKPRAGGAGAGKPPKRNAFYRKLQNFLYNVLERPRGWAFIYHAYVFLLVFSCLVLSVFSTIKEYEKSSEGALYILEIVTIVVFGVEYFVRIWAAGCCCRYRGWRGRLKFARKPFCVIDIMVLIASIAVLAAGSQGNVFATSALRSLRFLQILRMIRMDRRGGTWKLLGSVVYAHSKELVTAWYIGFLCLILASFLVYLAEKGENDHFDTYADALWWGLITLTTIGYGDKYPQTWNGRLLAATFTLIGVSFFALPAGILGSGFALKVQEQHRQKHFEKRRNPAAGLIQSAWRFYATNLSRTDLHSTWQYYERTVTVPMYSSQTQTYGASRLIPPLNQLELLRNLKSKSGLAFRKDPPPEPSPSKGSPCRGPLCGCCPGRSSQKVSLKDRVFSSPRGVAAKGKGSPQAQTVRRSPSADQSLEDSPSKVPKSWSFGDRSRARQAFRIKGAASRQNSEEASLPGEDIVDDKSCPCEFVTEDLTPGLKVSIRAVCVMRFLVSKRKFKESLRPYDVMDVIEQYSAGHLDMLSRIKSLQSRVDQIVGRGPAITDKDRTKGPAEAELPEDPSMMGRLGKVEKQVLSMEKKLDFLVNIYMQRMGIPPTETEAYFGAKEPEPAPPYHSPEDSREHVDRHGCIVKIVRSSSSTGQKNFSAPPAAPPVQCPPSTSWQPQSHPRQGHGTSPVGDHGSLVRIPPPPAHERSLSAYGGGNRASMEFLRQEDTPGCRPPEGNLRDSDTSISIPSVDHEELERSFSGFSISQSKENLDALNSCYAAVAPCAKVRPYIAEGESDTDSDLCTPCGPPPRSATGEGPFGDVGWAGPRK

As for `C[C@@H](c1ccc2c(c1)N(CC1CC1)CCO2)N(C)C(=O)/C=C/c1ccccc1F` [SMB-1, (E)-N-[(S)-1-(4-Cyclopropylmethyl-3,4-dihydro-2H-1,4-benzoxazin-6-yl)-ethyl]-3-(2-fluoro-phenyl)-N-methyl-acrylamide], on KV7.2 (10 µM), the “effect on τact_fast” value is “did not affect”. Further, the remaining activity at 10 µM at KV7.2 (10 µM SMB-1, +50 mV, n = 9, read-out: current amplitude, % of control) worked out at 81.7 ± 3.1%. Besides, the “effect on τact_slow” value on KV7.2 (10 µM, at −20 mV and above) is “increased”. Moreover, the “τdeact, deactivation time constant in presence of compound” value at KV7.2 (10 µM, control 20.2±1.4 ms, n = 7, p<0.001) worked out at 37.3 ± 3.3 ms. In addition, the “V0.5, voltage-dependence of activation in presence of compound” value on KV7.2 (10 µM, control −22.5±2.2 mV, n = 8, p<0.05) is on record as -18.0±2.7 mV. Further, on KV7.2 (current amplitude at +50 mV, 0.4, 2, 10 and 50 µM, n = 5), the IC50 was ~7.4 µM and 7.4 µM. Besides, in series [1], the “substrate for the efflux transporter P-gp” value is “not identified as a substrate”. For the same molecule, in series [2] (triplicate, read-out: membrane permeability (Papp)), the Papp at 150 min came to 2.5 ± 0.3 ×10⁻⁶ cm/s. In addition, the efflux ratio at 150 min in series [2] (read-out: efflux ratio, Papp (B to A) / Papp (A to B)) amounted to 0.7.
